The test system of test [1] is Vero. Nature of the test: viability loss in Vero cells – cell-based, plate reader, cherry-pick samples, cytotoxicity control, dose response (AID 687020). The format is functional. The settings on record: Chlorocebus sabaeus.
Test [2] addresses Beta-galactosidase (Escherichia coli, UniProt Q8VNN2). As to the kind of experiment: Dose response counterscreen for EBI2 assay utilizing the enzyme, b-galactosidase. The format is functional. A general note: A counterscreen serves to expose hits that act by an unwanted route or on another target.
The target of test [3] is T1, Trace amine-associated receptor 1 (Homo sapiens, UniProt Q96RJ0).
T1 sequence (Q96RJ0 whole entry): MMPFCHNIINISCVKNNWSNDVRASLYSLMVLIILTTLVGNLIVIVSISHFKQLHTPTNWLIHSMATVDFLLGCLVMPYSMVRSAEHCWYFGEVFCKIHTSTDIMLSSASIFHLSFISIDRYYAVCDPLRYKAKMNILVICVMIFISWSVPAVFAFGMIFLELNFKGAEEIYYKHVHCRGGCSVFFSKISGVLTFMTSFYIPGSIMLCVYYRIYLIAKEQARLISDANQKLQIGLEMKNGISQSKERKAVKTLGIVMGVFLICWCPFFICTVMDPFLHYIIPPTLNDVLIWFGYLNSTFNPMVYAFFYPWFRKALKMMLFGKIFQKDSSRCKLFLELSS
Nature of the test: Fluorescence-based cell-based high throughput dose response assay to identify agonists of the human trace amine associated receptor 1 (TAAR1). In kind it is functional.

Test [4] is described as follows: cells. The format is functional, cell-based.
Test [5] is described as follows: cells. The format is functional, cell-based. This is another data set of the same source.
Test [6] addresses T1, Trace amine-associated receptor 1. As to the kind of experiment: Counterscreen for agonists of the human trace amine associated receptor 1 (hTAAR1): Fluorescence-based cell-based high throughput dose response assay to identify hTAAR1 agonist that also desensitize TAAR1 receptor response. In kind it is functional.
Test [7] concerns the target T2, Low molecular weight phosphotyrosine protein phosphatase (Homo sapiens, UniProt P24666).
T2 sequence (P24666 whole entry): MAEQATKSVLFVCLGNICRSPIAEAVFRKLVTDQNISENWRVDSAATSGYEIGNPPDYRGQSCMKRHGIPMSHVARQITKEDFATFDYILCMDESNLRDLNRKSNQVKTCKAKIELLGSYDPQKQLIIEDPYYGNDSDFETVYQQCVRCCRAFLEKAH
The format is functional. As to conditions: read-out: IC50_Mean.

The target of test [8] is T3, Carboxy-terminal domain RNA polymerase II polypeptide A small phosphatase 1 (Homo sapiens, UniProt Q9GZU7).
T3 sequence (Q9GZU7 whole entry): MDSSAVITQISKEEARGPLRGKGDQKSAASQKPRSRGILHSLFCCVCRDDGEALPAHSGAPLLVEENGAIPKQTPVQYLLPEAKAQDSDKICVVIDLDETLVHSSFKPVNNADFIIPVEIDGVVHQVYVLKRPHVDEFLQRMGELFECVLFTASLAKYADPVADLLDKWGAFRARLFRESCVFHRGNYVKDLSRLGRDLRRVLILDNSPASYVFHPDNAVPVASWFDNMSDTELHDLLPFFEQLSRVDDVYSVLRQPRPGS
As to the kind of experiment: CTDSP1 inhibitors, concentration-response, biochemical, absorbance readout, ultra-high-throughput screen actives (AID 540297). The format is functional.

In test [9] the target is T2, Low molecular weight phosphotyrosine protein phosphatase. The format is functional. As to conditions: read-out: IC50_Mean. This is another data set of the same source.
A short description of test [10]: general mammalian cell viability loss – inhibitor set, cherry-pick, set 2, cytotoxicity control for miR-122 modulator project, dose response (AID 720697). The format is functional, cell-based.
Test [11] can be described thus: activation of miR-122 Renilla sensor silencing – cell-based, Huh7 psiCHECK-miR122, Renilla luciferase, cherry-picked, dose response (AID 651956).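 Further: huh7 hepatoma cells stably carrying a psiCHECK-2 miR-122 sensor plasmid; renilla luciferase signal reporting endogenous miR-122 activity after 48 h compound exposure.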 The format is functional.
A short description of test [12]: general mammalian cell viability loss – activator set, cherry-pick, cytotoxicity control for miR-122 modulator project, dose response (AID 720690).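 Further: HEK293T human cells scored for general mammalian cytotoxicity.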 The format is functional, cell-based.
For test [13], the target named is Beta-lactamase (Salmonella choleraesuis (strain SC-B67), UniProt Q5J463).
Sequence of Beta-lactamase (Salmonella choleraesuis (strain SC-B67), UniProt Q5J463) (Q5J463 whole entry): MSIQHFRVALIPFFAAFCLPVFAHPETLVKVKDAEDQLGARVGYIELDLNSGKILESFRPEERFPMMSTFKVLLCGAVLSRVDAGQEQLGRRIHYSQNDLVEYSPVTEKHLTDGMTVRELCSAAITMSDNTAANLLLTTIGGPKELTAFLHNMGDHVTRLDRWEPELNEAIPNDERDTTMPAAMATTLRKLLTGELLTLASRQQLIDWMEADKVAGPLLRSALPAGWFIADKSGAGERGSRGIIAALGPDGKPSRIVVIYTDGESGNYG
Test [14] has as its target Beta-lactamase (Pseudomonas aeruginosa, UniProt Q79MP6).
For test [15], the target named is T4, Endoribonuclease toxin MazF (Escherichia coli K-12, UniProt P0AE70).
T4 sequence (P0AE70 whole entry): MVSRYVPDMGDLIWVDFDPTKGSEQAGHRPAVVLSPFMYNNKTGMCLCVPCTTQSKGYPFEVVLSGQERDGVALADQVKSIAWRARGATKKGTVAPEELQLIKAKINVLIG
Nature of the test: substrate-only fluorescence increase artefacts – biochemical, single-stranded RNase substrate, counter-screen for MazEF activator project, dose response (AID 588502). The format is functional.

The target in test [16] is Beta Lactamase (Pseudomonas aeruginosa, UniProt Q932Y6).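 Further: confirmatory high-throughput screen measuring VIM-2 metallo-beta-lactamase inhibition by epi-absorbance in dose response.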
Sequence of Beta Lactamase (Q932Y6 whole entry): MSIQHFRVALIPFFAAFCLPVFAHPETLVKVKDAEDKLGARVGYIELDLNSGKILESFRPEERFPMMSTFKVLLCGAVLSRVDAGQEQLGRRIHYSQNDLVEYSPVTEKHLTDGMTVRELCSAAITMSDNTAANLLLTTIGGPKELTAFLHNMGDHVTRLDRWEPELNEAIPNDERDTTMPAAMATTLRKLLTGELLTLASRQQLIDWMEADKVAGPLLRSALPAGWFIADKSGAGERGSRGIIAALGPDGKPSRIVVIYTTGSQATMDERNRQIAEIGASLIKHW
Test [17] addresses T4, Endoribonuclease toxin MazF. As to the kind of experiment: activation of MazEF endoribonuclease cleavage – biochemical, fluorescence, single-stranded RNA substrate, uHTS hits, dose response (AID 588481). In kind it is functional.

Active and inactive are the calls of the source. A value given as a limit tells only on which side of the number the result lay.

Among the data in ChEMBL document CHEMBL1201862, “PubChem BioAssay data set” (2004) are AC50, IC50 and EC50 values, retold here.

The term AC50 denotes the concentration giving half of the maximal activity seen. What is called EC50 is the concentration needed to bring the measured effect to its halfway point.

Sequence of Beta-galactosidase (Q8VNN2 whole entry): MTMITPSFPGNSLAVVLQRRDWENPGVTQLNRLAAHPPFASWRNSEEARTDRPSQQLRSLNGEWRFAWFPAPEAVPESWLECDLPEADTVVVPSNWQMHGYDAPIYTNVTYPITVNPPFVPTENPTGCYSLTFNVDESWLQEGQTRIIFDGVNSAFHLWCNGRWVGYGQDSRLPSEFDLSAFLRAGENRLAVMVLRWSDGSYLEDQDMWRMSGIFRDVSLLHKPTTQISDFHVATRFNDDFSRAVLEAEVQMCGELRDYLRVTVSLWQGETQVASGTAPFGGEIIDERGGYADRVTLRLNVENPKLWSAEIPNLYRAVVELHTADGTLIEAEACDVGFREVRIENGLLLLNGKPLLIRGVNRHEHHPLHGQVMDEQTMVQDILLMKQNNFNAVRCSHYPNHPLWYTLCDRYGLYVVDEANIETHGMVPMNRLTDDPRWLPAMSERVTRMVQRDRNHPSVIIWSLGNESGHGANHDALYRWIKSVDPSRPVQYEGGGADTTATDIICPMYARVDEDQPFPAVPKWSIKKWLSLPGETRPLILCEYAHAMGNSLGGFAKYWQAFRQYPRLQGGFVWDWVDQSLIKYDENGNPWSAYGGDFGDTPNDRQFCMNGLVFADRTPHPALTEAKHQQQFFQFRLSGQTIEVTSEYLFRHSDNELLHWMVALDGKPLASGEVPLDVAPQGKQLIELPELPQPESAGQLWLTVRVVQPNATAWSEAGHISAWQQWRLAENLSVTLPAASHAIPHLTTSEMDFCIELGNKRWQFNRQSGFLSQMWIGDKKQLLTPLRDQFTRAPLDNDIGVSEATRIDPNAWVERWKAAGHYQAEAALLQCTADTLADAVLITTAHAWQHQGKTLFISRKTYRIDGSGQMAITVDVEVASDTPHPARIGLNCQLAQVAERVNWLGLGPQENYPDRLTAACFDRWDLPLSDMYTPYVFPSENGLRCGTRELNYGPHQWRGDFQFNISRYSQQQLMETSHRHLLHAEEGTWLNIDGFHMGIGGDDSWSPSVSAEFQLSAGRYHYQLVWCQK
Sequence of Beta-lactamase (Pseudomonas aeruginosa, UniProt Q79MP6) (Q79MP6 whole entry): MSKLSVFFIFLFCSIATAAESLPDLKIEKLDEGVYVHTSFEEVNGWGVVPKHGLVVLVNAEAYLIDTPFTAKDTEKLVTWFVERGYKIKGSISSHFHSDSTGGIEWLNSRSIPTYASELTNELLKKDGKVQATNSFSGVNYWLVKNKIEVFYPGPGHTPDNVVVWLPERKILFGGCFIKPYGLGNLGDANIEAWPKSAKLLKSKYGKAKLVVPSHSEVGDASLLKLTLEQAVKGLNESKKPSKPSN

On to `COc1ccc(NC(=O)N[C@H]2CC[C@@H](CCn3cc(C4(O)CCCC4)nn3)O[C@@H]2CO)cc1`, for which the AC50 in test [1] is 36.7 µM (active).

`CN(Cc1ccccc1)C(=O)COc1ccc2ccccc2c1`: the IC50 in test [2] is > 80 µM (inactive).

`O=C(O)C1C2CCC(C2)C1C(=O)NCCc1cccc(Cl)c1` (configuration not stated): the EC50 in test [3] was 2.58 µM (active); in test [5], > 29.9 µM (inactive). Moreover, the IC50 in [4] and in test [6] was > 29.9 µM (inactive) throughout.

For the compound `O=C(N/N=C\c1ccc(OC(=O)c2cccs2)cc1)c1ccc(Cl)cc1`, the IC50 in [7] is 11.4 µM (active); in test [8], 2.16 µM (active); in [9], 4.51 µM (active).

In the case of `C[C@H](CO)N1C[C@H](C)[C@H](CN(C)C(=O)c2ccc3c(c2)OCO3)Oc2cc(C#Cc3ccccc3F)ccc2S1(=O)=O`, the figures for the AC50 in test [10], in test [11] and in [12] were 23.7 µM (active), 36.6 µM (active) and 20.8 µM (active), respectively.

Consider `Oc1ccc2ccccc2c1-c1sc(Nc2ccccc2)n[n+]1-c1ccc(F)cc1`, for which the IC50 in [13] was 23.7 µM (inactive); in test [14], 46.8 µM (inactive); in test [16] it was 32 µM (inactive). Besides, the EC50 in [15] and in [17] was > 99 µM (inactive) throughout.
